Data on two compounds can be found in PMC6278656, “Synthesis and Biological Evaluation of Phaeosphaeride A Derivatives as Antitumor Agents” (Molecules, 2018).

Data set [1] relates to human chronic myelogenous leukemia K562 cells. The data set is described as follows: MTT cytotoxicity assay, K562. The settings on record: for IC50: Homo sapiens, MTT, 72 h, n = 3, ± SD, read-out: Suspension Cell Cultures, IC50 К562. The class given is cell-based. The method, then: (§1) All newly synthesized PPA derivatives 1–8 were evaluated for their anti-proliferative activity against human breast cancer MCF-7, human prostate adenocarcinoma PC-3, human colorectal cancer HCT-116, human lung cancer A549, human chronic myelogenous leukemia K562, human acute monocytic leukemia THP-1, human multiple myeloma RPMI8226, human acute T-cell leukemia Jurkat, human multiple myeloma NCI-H929, and human embryonic fibroblasts HEF cell lines by MTT assays. All cells were incubated with different concentrations of PPA derivatives for 72 h, with etoposide and PPA used as reference compounds. The anticancer activity of the tested compounds was described as the concentration of drug inhibiting 50% cell growth IC50 (Table 1 and Table 2).
(§2) ^1H-NMR spectra were acquired on an AVANCE III 400 MHz NMR spectrometer (Bruker, Rheinstetten, Germany) in CDCl3. Optical rotations were acquired on a Polaar 3005 Polarimeter (Optical Activity, Huntingdon, Great Britain) using a 2.5 cm cell with a Na 589 nm filter and the concentration of samples was denoted as c. Mass spectra data were acquired on a TSQ Quantum Access Max Mass spectrometer (Thermo Fisher Scientific, Waltham, MA, USA). High-resolution mass spectra (HRMS) were acquired on a LTQ Orbitrap Velos spectrometer (Thermo Scientific) and on a Bruker MicrOTOF. FTIR spectra were acquired on an IR Affinity-1 spectrometer (Shimadzu, Thermo Scientific). Organic solvents used were dried by standard methods when necessary. Commercially available reagents were used without further purification. All reactions were monitored by TLC with silica gel coated plates (EMD/Merck KGaA, Darmstadt, Germany), with visualization by UV light and by charring with 0.1% ninhydrin in EtOH. Column chromatography was performed using Merck 60 Å 70–230 mesh silica gel. The optical density was determined using a Multiskan FC spectrophotometer (Thermo Scientific) at a wavelength of 540 nm when using the MTT assay.
(§3) MCF-7 (breast cancer), PC-3 (prostate adenocarcinoma), HCT-116 (colorectal cancer cell), A549 (lung cancer), K562 (chronic myelogenous leukemia), THP-1 (acute monocytic leukemia), and RPMI8226 (multiple myeloma), Jurkat (acute T-cell leukemia), HEF (human embryonic fibroblasts) was purchased from the Russian Academy of Sciences Cells Bank (Institute of Cytology of the Russian Academy of Sciences, Saint Petersburg, Russian Federation). Multiple myeloma cell line NCI-H929 was purchased from ATCC (USA). The MCF-7, A549 and HEF (human embryonic fibroblasts) were cultured in DMEM medium. Other cell lines were cultured in RPMI1640 medium, (PanEco, Russia) supplemented with 10% fetal bovine serum (GE Healthcare LifeSciences, São Paulo, Brazil), and gentamicin at a concentration of 40 μg/mL and cultured at 37 °C in a humidified atmosphere containing 5% CO2. All experiments were performed with cells at passages 3 to 7 in the logarithmic phase of growth.
(§4) Cells were seeded into 96-well plates of 5 × 10^3 for adhesive cultures and 20 × 10^3 for suspension cultures per well in 90 μL and 135 μL of culture medium, respectively. The test substances were dissolved in DMSO to a concentration of 1 × 10^−2 M. For subsequent dilution of the substances, a serum-free culture medium was used as the diluent. Final concentration of DMSO in wells was no more than 1%. […] Substances were added to the cells in 3–4 replicates after 24 h for adhesive cultures and immediately for suspension cultures. 10–15 μL of serum-free medium was added to the control wells with non-exposed cells. Cells were cultured for 72 h at 37 °C in an atmosphere of 5% CO2.

Data set [2] concerns human acute T-cell leukemia Jurkat cells. Kind of data set: MTT cytotoxicity assay, Jurkat. The class given is cell-based. The settings on record: for IC50: Homo sapiens, MTT, 72 h, n = 3, ± SD, read-out: Suspension Cell Cultures, IC50 Jurkat. The method, then:
as §1, §2, §3, §4

In data set [3] the test system is human multiple myeloma NCI-H929 cells. Kind of data set: MTT cytotoxicity assay, NCI-H929. The settings on record: for IC50: Homo sapiens, MTT, 72 h, n = 3, ± SD, read-out: Suspension Cell Cultures, IC50 NCI-Н929. It is filed as cell-based. The method, then: as §1, §2, §3, §4
Data set [4] deals with human multiple myeloma RPMI8226 cells. The data set is described as follows: MTT cytotoxicity assay, RPMI8226. The class given is cell-based. The settings on record: for IC50: Homo sapiens, RPMI-8226, MTT, 72 h, n = 3, ± SD, read-out: Suspension Cell Cultures, IC50 RPMI8228. The protocol: as §1, §2, §3, §4
In data set [5] the test system is human acute monocytic leukemia THP-1 cells. Kind of data set: MTT cytotoxicity assay, THP-1. The class given is cell-based. The settings on record: 72 h, n = 3, ± SD, read-out: Suspension Cell Cultures, IC50 THP-1. The method, then: as §1, §2, §3, §4
Data set [6] concerns human colorectal cancer HCT-116 cells. The data set is described as follows: MTT cytotoxicity assay, HCT-116. The class given is cell-based. Conditions: for IC50: Homo sapiens, MTT, 72 h, n = 3, ± SD, read-out: Adhesive Cell Cultures, IC50 HCT-116. The method, then: as §1, §2, §3, §4
Data set [7] concerns human breast cancer MCF-7 cells. Kind of data set: MTT cytotoxicity assay, MCF-7. The settings on record: MCF7, 72 h, n = 3, ± SD, read-out: Adhesive Cell Cultures, IC50 MCF-7. It is filed as cell-based. The protocol:
as §1, §2, §3, §4

For data set [8], the system named is human embryonic fibroblasts HEF. The data set is described as follows: MTT cytotoxicity assay, HEF (control cells). The class given is cell-based. The settings on record: Fibroblast, 72 h, n = 3, ± SD, read-out: Adhesive Cell Cultures, IC50 HEF. The protocol:
as §1, §2, §3, §4

For data set [9], the system named is human lung cancer A549 cells. Kind of data set: MTT cytotoxicity assay, A549. It is filed as cell-based. Conditions: 72 h, n = 3, ± SD, read-out: Adhesive Cell Cultures, IC50 A549. The method, then: as §1, §2, §3, §4
The test system of data set [10] is human prostate adenocarcinoma PC-3 cells. Kind of data set: MTT cytotoxicity assay, PC-3. The class given is cell-based. Conditions: for IC50: Homo sapiens, MTT, 72 h, n = 3, ± SD, read-out: Adhesive Cell Cultures, IC50 PC-3. The protocol:
as §1, §2, §3, §4

Data set [11] has as its system mice. Kind of data set: Acute intraperitoneal toxicity study. It is filed as in vivo. The method, then: (§5) Six to eight-week-old outbreed male mice were purchased from the Rappolovo Animal Farm of the Russian Academy of Sciences. Animals were group housed in solid bottom polycarbonate cages (3–5 animals/cage) and provided with sterilized pelleted food and pure water ad libitum.
(§6) Thirty mice were randomly assigned to the acute toxicity study. Animals in experimental groups ([…]) received a dose formulation containing compound 6 solution in 5% DMSO at various dosages (8.25, 82.5 and 200 mg/kg) via single i.p. injection. Mice in the control group treated with vehicle (5% DMSO). The location of the i.p. injection was in the lower left abdominal quadrant. […] After treatments, the following parameters and end points were evaluated for 14 days: mortality, clinical signs, body weight, food consumption, locomotion, salivation, diarrhea, and lethargy. The maximum tolerated dose in this study is defined as the highest dose that will be tolerated and not produce major life-threatening toxicity for the study duration. All experimental procedures were performed according to the principles and guidelines for the care and use of laboratory animals. The animals were sacrificed by carbon dioxide asphyxiation and cervical dislocation. All efforts were made to minimize suffering. Post mortem evaluation included gross examination for all animals at terminal necropsy and calculation of organ mass coefficients. No histopathological examinations were performed.

Data set [12] is described as follows: Acute intraperitoneal toxicity study. The class given is in vivo. The settings on record: male, outbred (printed 'outbreed'), mouse, in vivo, ip, mice, single i.p. injection, 14 days. The protocol:
as §5, §6

The subject of data set [13] is mice. Details: method as in RTECS # KC0190000. The settings on record: i.p., ref RTECS # KC0190000; cited from earlier work.

Bounds are passed on as bounds.

`C=C1C2=C(C(=O)N1OC)[C@@H](N1CCCC1)[C@@](C)(O)[C@H](CCCCC)O2` [Compound 6, (2S,3R,4R)-3-Hydroxy-6-methoxy-3-methyl-7-methylene-2-pentyl-4-pyrrolidin-1-yl-3,4,6,7-tetrahydro-pyrano[2,3-c]pyrrol-5(2H)-one]: the “fold increase in anticancer activity comparative to etoposide” value in data set [1] worked out at 16 fold; in data set [2], 1.5 fold; in data set [3], 4 fold; in [4] (RPMI8226), 7 fold; in data set [6], 47 fold; in data set [10], 13.5 fold. Besides, the “fold stronger than the reference compound PPA” value in data set [1] stood at 37 fold; in data set [2] it was 17.5 fold; in data set [3], 28 fold; in data set [4] (RPMI8226), 14.5 fold; in data set [6], 51 fold; in data set [10], 160 fold. The IC50 in data set [1] turned out to be 0.54 ± 0.03 µM; in data set [2] it was 550 ± 290 nM; in [3], 230 ± 20 nM; in data set [4], 630 ± 230 nM; in [5], 2050 ± 210 nM; in [6], 0.47 ± 0.01 µM. Further, the 50% inhibitory concentration (IC50) in data set [7] turned out to be 3.25 ± 0.64 µM; in data set [8], 4 ± 0.17 µM; in data set [9], 10.1 ± 0.5 µM; in data set [10], 200 ± 70 nM. Moreover, in the data set on mice [11] (mice, i.p.), the “toxicity in vivo comparative to etoposide” value is given as “less toxic”. Also, the “effect on mean body weight or mass coefficients (spleen, liver, heart, kidney, lung, thymus, and adrenal)” value with mice [11] (mouse, in vivo, ip) is “No effect”. Further, the “gross abnormalities in the organs tested” value in the data set on mice [11] (mouse, in vivo, ip) is listed as “No gross abnormalities”. Also, the LD50 at 14 days in [12] (not determined, believed to be more than, read-out: Median lethal dose (LD50)) is above 200 mg/kg. Also, the MTD at 14 days in data set [12] (read-out: Maximum tolerated dose) is at least 82.5 mg/kg.
For `COc1cc([C@@H]2c3cc4c(cc3[C@@H](O[C@@H]3O[C@@H]5CO[C@@H](C)O[C@H]5[C@H](O)[C@H]3O)[C@H]3COC(=O)[C@H]23)OCO4)cc(OC)c1O` [Etoposide, etoposide, reference compound], the IC50 was found to be 8.47 ± 0.95 µM in data set [1]; 880 ± 740 nM in [2]; 920 ± 30 nM in [3]; 4600 ± 280 nM in data set [4]; 830 ± 210 nM in data set [5]; 22 ± 1.1 µM in data set [6]. Further, the IC50 is 9.6 ± 0.27 µM in [7], above 100 µM in data set [8], above 100 µM in data set [9] and 2700 ± 50 nM in [10]. Also, the “Intraperitoneal LD50” value in the data set with mice [13] is 64 mg/kg.
